Measured values as given in ChEMBL document CHEMBL1130923, “Synthesis and biological activity of 2-methyl-20-epi analogues of 1 alpha,25-dihydroxyvitamin D3” (1998).

Tests used:
HL-60 = assay: Cell differentiation activity towards HL-60 cells was assessed in terms of NTB reactivity; type: functional, Homo sapiens
Rattus norvegicus = organism: Rattus norvegicus; assay: Bone calcium mobilization was tested on normal SD male rats and serum calcium level was reported; type: functional; set-up: unit not given beside the values
[1] = target: T1, Vitamin D3 receptor (Bos taurus) (UniProt Q28037); assay: Affinity for bovine thymus VDR vitamin D receptor
T1 sequence (whole entry): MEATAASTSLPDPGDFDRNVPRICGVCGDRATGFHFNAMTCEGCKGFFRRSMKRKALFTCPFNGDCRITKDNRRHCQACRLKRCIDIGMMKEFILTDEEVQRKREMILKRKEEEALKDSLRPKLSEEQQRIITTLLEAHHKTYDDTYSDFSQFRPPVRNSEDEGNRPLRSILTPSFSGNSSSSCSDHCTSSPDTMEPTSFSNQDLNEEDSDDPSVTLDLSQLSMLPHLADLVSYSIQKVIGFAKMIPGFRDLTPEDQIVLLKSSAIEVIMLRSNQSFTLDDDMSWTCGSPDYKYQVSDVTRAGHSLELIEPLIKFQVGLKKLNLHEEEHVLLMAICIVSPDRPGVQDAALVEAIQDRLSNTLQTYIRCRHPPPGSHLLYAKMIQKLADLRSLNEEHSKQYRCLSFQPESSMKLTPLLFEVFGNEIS

Structure (SMILES) | Activity [1] | Activity (HL-60) | Activity (Rattus norvegicus)
C=C1/C(=C\C=C2/CCC[C@]3(C)[C@@H]([C@H](C)CCCC(C)(C)O)CC[C@@H]23)C[C@@H](O)[C@@H](C)[C@@H]1O | 160 | 2600 | 115
C=C1/C(=C\C=C2/CCC[C@]3(C)[C@@H]([C@H](C)CCCC(C)(C)O)CC[C@@H]23)C[C@H](O)[C@H](C)[C@H]1O | < 0.1 | 1 | 
C=C1/C(=C\C=C2/CCC[C@]3(C)[C@@H]([C@H](C)CCCC(C)(C)O)CC[C@@H]23)C[C@H](O)[C@@H](C)[C@H]1O | 7 | 190 | 19
C=C1/C(=C\C=C2/CCC[C@]3(C)[C@@H]([C@H](C)CCCC(C)(C)O)CC[C@@H]23)C[C@@H](O)[C@H](C)[C@H]1O | < 0.1 | 3 | 

Second part, led by results:

Activity [1] | Structure (SMILES) | Activity (HL-60) | Activity (Rattus norvegicus)
100 | C=C1/C(=C\C=C2/CCC[C@]3(C)[C@@H]([C@H](C)CCCC(C)(C)O)CC[C@@H]23)C[C@@H](O)C[C@@H]1O [CALCITRIOL] | 100 | 100
< 0.1 | C=C1/C(=C\C=C2/CCC[C@]3(C)[C@@H]([C@H](C)CCCC(C)(C)O)CC[C@@H]23)C[C@H](O)[C@@H](C)[C@@H]1O | 6 | 
17 | C=C1/C(=C\C=C2/CCC[C@]3(C)[C@@H]([C@H](C)CCCC(C)(C)O)CC[C@@H]23)C[C@H](O)[C@H](C)[C@@H]1O | 730 | 144
< 0.1 | C=C1/C(=C\C=C2/CCC[C@]3(C)[C@@H]([C@H](C)CCCC(C)(C)O)CC[C@@H]23)C[C@@H](O)[C@@H](C)[C@H]1O | 1 | 
1200 | C=C1/C(=C\C=C2/CCC[C@]3(C)[C@@H]([C@H](C)CCCC(C)(C)O)CC[C@@H]23)C[C@@H](O)[C@H](C)[C@@H]1O | 59000 | 655
